Laboratory results taken from ChEMBL document CHEMBL1201862, “PubChem BioAssay data set” (2004).
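Compound exposure: 48 hours, 5 concentrations, 96-well plates. The concentration for 50% growth inhibition is given as GI50.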 Active and inactive are the calls of the source. No stated cut-off is given here; in the data, active = GI50 up to about 1.1 µM and inactive = higher.

How the values were obtained:
Experiment in all cases: NCI-60 cell line screen, 48 h
SNB-78 = system: SNB-78
ACHN = system: ACHN
MDA-MB-435 = system: MDA-MB-435
T47D = system: T47D
BT-549 = system: BT-549
Hs-578T = system: Hs-578T
LXFL 529 = system: LXFL 529
RXF 631 = system: RXF 631
786-0 = system: 786-0

Row | SMILES | GI50 (SNB-78) | GI50 (ACHN) | GI50 (MDA-MB-435) | GI50 (T47D) | further results
1 | COc1cc(C2c3cc4c(cc3[C@@H](Nc3cnc5ccccc5c3)C3COC(=O)[C@H]23)OCO4)cc(OC)c1O (some centres undefined) | 2.69 µM (inactive) |  |  |  | 
2 | CC1(C)N=C(N)N=C(N)N1c1ccc(OCCCOc2ccccc2)c(Cl)c1 | 0.538 µM (active) |  |  |  | 
3 | CC(NC(C#N)CC12CC3CC(CC(C3)C1)C2)c1ccccc1 (centres undefined) |  | 47.6 µM (inactive) | > 100 µM (inactive) | 52 µM (inactive) | 
4 | C=CCn1c(=O)c(C)cn(COCCO)c1=O |  | > 100 µM (inactive) | > 100 µM (inactive) | > 100 µM (inactive) | GI50 (BT-549): > 100 µM (inactive); GI50 (Hs-578T): > 100 µM (inactive)
5 | C=C1C(=O)OC2C1CC1OC2C(C)CCC/C(C)=C\CCC1(C)O (centres undefined) | 12.1 µM (inactive) |  |  |  | 
6 | C[C@]12CC[C@H](O)C=C1CC[C@@H]1[C@@H]2CC[C@]2(C)C(c3ccc(=O)oc3)CC[C@]12O (some centres undefined) | 0.0163 µM (active) |  |  |  | 
7 | CCN(CC)CCCNc1ncc(C)c2[nH]c3ccncc3c12 | 19.1 µM (inactive) |  |  |  | 
8 | COc1ccc(C(=O)/C(Br)=C/C(=O)O)cc1 |  | 55 µM (inactive) | 25.8 µM (inactive) | 53.2 µM (inactive) | GI50 (BT-549): 17.9 µM (inactive)
9 | CC(=O)C(C(=O)C(=O)Nc1cc(Cl)c(Cl)cc1Cl)c1csc(N)n1 (centres undefined) | > 100 µM (inactive) | > 100 µM (inactive) |  |  | GI50 (LXFL 529): > 100 µM (inactive); GI50 (RXF 631): > 100 µM (inactive)
10 | CCOC(=O)Oc1ccc(C(CNC(C)C)OC(=O)OCC)cc1OC(=O)OCC (centres undefined) |  | > 100 µM (inactive) | > 100 µM (inactive) | > 100 µM (inactive) | GI50 (786-0): > 100 µM (inactive); GI50 (BT-549): > 100 µM (inactive); GI50 (Hs-578T): > 100 µM (inactive)
11 | CC12Nc3ccccc3C1=C(c1ccccc1)CC1C(=O)OC(=O)C12 (centres undefined) | > 100 µM (inactive) | > 100 µM (inactive) |  |  | GI50 (786-0): > 100 µM (inactive); GI50 (LXFL 529): > 100 µM (inactive); GI50 (RXF 631): > 100 µM (inactive)
12 | CN(C)c1ccc(N2C(=S)SC(=N\c3ccccc3)/C2=N/c2ccccc2)cc1 |  |  | > 100 µM (inactive) | > 100 µM (inactive) | GI50 (BT-549): > 100 µM (inactive); GI50 (Hs-578T): > 100 µM (inactive)
13 | COC(=O)C1=C(OC(=O)/C=C/c2ccc(Cl)cc2)C(C(=O)OC)[C@@]2(O)[C@@H](C(=O)OC)[C@H](C)C[C@@H]1[C@@H]2C(=O)OC (some centres undefined) |  | 22.2 µM (inactive) | 14.9 µM (inactive) | 26.1 µM (inactive) | GI50 (BT-549): 21.6 µM (inactive); GI50 (Hs-578T): 3.9 µM (inactive)
14 | COC1=CC(=O)C=C(OC)C1=O [2,6-DIMETHOXYQUINONE] | 16.8 µM (inactive) |  |  |  | 
15 | O=C(Nc1nc2ccc([N+](=O)[O-])cc2s1)C(=O)C(C(=O)c1ccccc1F)C1OC(=O)c2ccccc21 (centres undefined) | 25.1 µM (inactive) | 59.4 µM (inactive) |  |  | GI50 (LXFL 529): 34 µM (inactive)
16 | NCCCNCCSSCc1ccccc1CSSCCNCCCN | 56.5 µM (inactive) | 37 µM (inactive) |  |  | GI50 (LXFL 529): 30.4 µM (inactive); GI50 (RXF 631): > 100 µM (inactive)
17 | COc1ccc2c(c1)c1cc(OC)ccc1n2CCCCOc1ccc(-c2c3ccccc3c(-c3ccc(OCCCCn4c5ccc(OC)cc5c5cc(OC)ccc54)cc3)c3ccccc23)cc1 |  | > 100 µM (inactive) |  |  | 
18 | C[S+](C)([O-])=Nn1c(=O)n2n(c1=O)[C@H]1CC[C@@H]2C1 |  | > 100 µM (inactive) | > 100 µM (inactive) | > 100 µM (inactive) | GI50 (Hs-578T): > 100 µM (inactive)
